The values that follow come from article PMC4859819 (Molecular Pharmacology, 2016).

Holding throughout (assay): two-electrode voltage clamp, Xenopus oocytes
Common to all, as to format: cell-based

The target in experiment [1] is T1, GluN1/GluN2B receptor (rat GluN1-1a, mouse GluN2B) (Rattus norvegicus; Mus musculus, UniProt P35439+Q01097).
T1 construct: gene Grin1; full-length receptors from pcDNA3-based plasmids, Xenopus laevis oocytes, cDNA ratio 1:1; heterotetramer, usually two GluN1 and two GluN2
The source says: (§1) two-electrode voltage clamp, Xenopus oocytes on GluN1/GluN2B receptor (rat GluN1-1a, mouse GluN2B)

Experiment [2] concerns the target T2, GluN1/GluN2B receptor (rat GluN1-1a, mouse GluN2B) (Rattus norvegicus; Mus musculus, UniProt P35439+Q01097, P35439:L135H).
T2 construct: gene Grin1; full-length receptors from pcDNA3-based plasmids, Xenopus laevis oocytes, cDNA ratio 1:1; heterotetramer, usually two GluN1 and two GluN2
Excerpt: as §1

The target in experiment [3] is T3, GluN1/GluN2B receptor (rat GluN1-1a, mouse GluN2B) (Rattus norvegicus; Mus musculus, UniProt P35439+Q01097, P35439:L135W).
T3 construct: gene Grin1; full-length receptors from pcDNA3-based plasmids, Xenopus laevis oocytes, cDNA ratio 1:1; heterotetramer, usually two GluN1 and two GluN2
T3 sequence (Q01097 27-1482, other chains not shown): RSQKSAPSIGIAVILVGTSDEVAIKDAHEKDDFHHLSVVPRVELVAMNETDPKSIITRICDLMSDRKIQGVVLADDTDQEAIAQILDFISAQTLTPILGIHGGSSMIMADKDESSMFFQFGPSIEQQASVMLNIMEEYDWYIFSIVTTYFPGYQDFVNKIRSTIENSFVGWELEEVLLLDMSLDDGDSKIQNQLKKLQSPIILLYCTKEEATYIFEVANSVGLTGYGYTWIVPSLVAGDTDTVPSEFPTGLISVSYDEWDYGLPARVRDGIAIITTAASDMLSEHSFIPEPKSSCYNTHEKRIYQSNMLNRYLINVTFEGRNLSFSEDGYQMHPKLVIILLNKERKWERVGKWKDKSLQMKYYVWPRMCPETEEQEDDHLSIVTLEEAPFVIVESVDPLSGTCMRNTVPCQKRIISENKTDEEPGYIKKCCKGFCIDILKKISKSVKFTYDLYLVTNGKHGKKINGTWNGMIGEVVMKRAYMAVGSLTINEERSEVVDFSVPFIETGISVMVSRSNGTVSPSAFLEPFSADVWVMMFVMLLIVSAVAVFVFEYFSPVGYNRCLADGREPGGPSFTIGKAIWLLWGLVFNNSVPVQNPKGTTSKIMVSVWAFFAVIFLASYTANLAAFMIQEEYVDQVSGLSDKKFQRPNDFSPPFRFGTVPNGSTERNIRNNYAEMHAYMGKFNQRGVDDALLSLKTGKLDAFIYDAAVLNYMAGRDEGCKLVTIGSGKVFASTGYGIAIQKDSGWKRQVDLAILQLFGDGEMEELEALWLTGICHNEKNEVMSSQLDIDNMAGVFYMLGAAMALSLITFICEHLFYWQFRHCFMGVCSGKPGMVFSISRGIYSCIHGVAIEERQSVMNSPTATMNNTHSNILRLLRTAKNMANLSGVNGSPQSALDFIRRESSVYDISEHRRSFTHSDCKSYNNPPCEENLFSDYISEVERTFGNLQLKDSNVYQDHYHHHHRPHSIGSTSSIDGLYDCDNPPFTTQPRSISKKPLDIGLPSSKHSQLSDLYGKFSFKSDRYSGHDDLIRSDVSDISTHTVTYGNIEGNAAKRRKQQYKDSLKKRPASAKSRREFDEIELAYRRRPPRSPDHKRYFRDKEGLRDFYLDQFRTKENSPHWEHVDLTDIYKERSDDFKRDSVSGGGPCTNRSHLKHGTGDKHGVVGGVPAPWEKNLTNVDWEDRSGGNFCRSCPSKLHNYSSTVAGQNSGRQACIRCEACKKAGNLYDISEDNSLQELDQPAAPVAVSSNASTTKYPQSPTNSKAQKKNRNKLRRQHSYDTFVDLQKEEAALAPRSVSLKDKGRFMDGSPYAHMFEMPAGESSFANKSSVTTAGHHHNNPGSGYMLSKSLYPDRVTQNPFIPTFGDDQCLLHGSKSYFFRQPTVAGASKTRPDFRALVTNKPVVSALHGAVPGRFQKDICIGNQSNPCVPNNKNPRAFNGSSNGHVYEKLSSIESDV
Excerpt: as §1

Experiment [4] addresses T4, GluN1/GluN2B receptor (rat GluN1-1a, mouse GluN2B) (Rattus norvegicus; Mus musculus, UniProt P35439+Q01097, P35439:Y109C).
T4 construct: gene Grin1; full-length receptors from pcDNA3-based plasmids, Xenopus laevis oocytes, cDNA ratio 1:1; heterotetramer, usually two GluN1 and two GluN2
Excerpt: as §1

For experiment [5], the target named is T5, GluN1/GluN2B receptor (rat GluN1-1a, mouse GluN2B) (Rattus norvegicus; Mus musculus, UniProt P35439+Q01097, P35439:Y109S).
T5 construct: gene Grin1; full-length receptors from pcDNA3-based plasmids, Xenopus laevis oocytes, cDNA ratio 1:1; heterotetramer, usually two GluN1 and two GluN2
T5 sequence (Q01097 27-1482, other chains not shown): as above
Excerpt: as §1

Experiment [6] concerns the target T6, GluN1/GluN2B receptor (rat GluN1-1a, mouse GluN2B) (Rattus norvegicus; Mus musculus, UniProt P35439+Q01097, Q01097:A135G).
T6 construct: gene Grin1; full-length receptors from pcDNA3-based plasmids, Xenopus laevis oocytes, cDNA ratio 1:1; heterotetramer, usually two GluN1 and two GluN2
Excerpt: as §1

Experiment [7] deals with T7, GluN1/GluN2B receptor (rat GluN1-1a, mouse GluN2B) (Rattus norvegicus; Mus musculus, UniProt P35439+Q01097, Q01097:A135P).
T7 construct: gene Grin1; full-length receptors from pcDNA3-based plasmids, Xenopus laevis oocytes, cDNA ratio 1:1; heterotetramer, usually two GluN1 and two GluN2
Excerpt: as §1

Experiment [8] deals with T8, GluN1/GluN2B receptor (rat GluN1-1a, mouse GluN2B) (Rattus norvegicus; Mus musculus, UniProt P35439+Q01097, Q01097:F114S).
T8 construct: gene Grin1; full-length receptors from pcDNA3-based plasmids, Xenopus laevis oocytes, cDNA ratio 1:1; heterotetramer, usually two GluN1 and two GluN2
Excerpt: as §1

In experiment [9] the target is T9, GluN1/GluN2B receptor (rat GluN1-1a, mouse GluN2B) (Rattus norvegicus; Mus musculus, UniProt P35439+Q01097, Q01097:F176A).
T9 construct: gene Grin1; full-length receptors from pcDNA3-based plasmids, Xenopus laevis oocytes, cDNA ratio 1:1; heterotetramer, usually two GluN1 and two GluN2
Excerpt: as §1

The target in experiment [10] is T10, GluN1/GluN2B receptor (rat GluN1-1a, mouse GluN2B) (Rattus norvegicus; Mus musculus, UniProt P35439+Q01097, Q01097:P177C).
T10 construct: gene Grin1; full-length receptors from pcDNA3-based plasmids, Xenopus laevis oocytes, cDNA ratio 1:1; heterotetramer, usually two GluN1 and two GluN2
Excerpt: as §1

The target in experiment [11] is T11, GluN1/GluN2B receptor (rat GluN1-1a, mouse GluN2B) (Rattus norvegicus; Mus musculus, UniProt P35439+Q01097, Q01097:Q110G).
T11 construct: gene Grin1; full-length receptors from pcDNA3-based plasmids, Xenopus laevis oocytes, cDNA ratio 1:1; heterotetramer, usually two GluN1 and two GluN2
Excerpt: as §1

T2 sequence (Q01097 27-1482, other chains not shown): as above

For `Cc1nccn1Cc1cc(-c2ccc(F)c(C(F)F)c2)cnn1` [compound 1, 5-(3-(difluoromethyl)-4-fluorophenyl)-3-((2-methyl-1H-imidazol-1-yl)methyl)pyridazine], the IC50 in experiment [1] stood at 12 ± 0.2 nM; in experiment [2], 71 ± 7 nM; in experiment [3] it was 9 ± 1 nM; in experiment [4], 7300 ± 260 nM; in experiment [5], 9620 ± 700 nM; in experiment [6], 72 ± 7 nM. In addition, the IC50 came to 404 ± 15 nM in experiment [7]; 676 ± 10 nM in experiment [8]; 11400 ± 1000 nM in experiment [9]; 75 ± 12 nM in [10]; 502 ± 14 nM in [11].
